Experimental findings from ChEMBL document CHEMBL1201862, “PubChem BioAssay data set” (2004) are described below.

SMILES strings stand for the structures. Calls of active or inactive are those of the source.

A short description of assay [1]: inhibitors of clade B AD8 Env fusion, dose response, cell-based, cherry-pick (AID 652062).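 Also: luciferase signal from cell-cell fusion driven by HIV-1 clade B AD8 Env; potency is for inhibitors of fusion seen as a drop in luminescence.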 The format is functional.
The nature of assay [2]: off-target signal loss in HeLa-CEM21 co-culture – HeLa F-luc CTL cells, cherry-picked, counter-screen for HIV-1 Env fusion inhibitor project, dose response (AID 652040).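 Also: potency for signal decrease marking cytotoxic or nonspecific inhibition.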 In kind it is functional, cell-based.
A short description of assay [3]: ZM109 Env clade C HIV-1 fusion inhibitors, dose response, HeLa effector, CEM target cells, luciferase, cherry-pick (AID 652058). The format is functional, cell-based.
Assay [4] can be described thus: inhibitors of HIV Env-driven cell fusion, dose response, cherry-pick (AID 652057). In kind it is functional, cell-based.
Assay [5] is described as follows: non-specific cell cytotoxicity, dose response, cytotoxicity control for PAX8 inhibitor project, plate reader, dry powder samples (AID 743021). The format is functional, cell-based.
Another assay addresses Paired box protein Pax-8 (Homo sapiens, UniProt Q06710). Nature of the assay: inhibitors of PAX8-driven TPO luciferase reporter, dose response, RMG-I cells, cherry-pick (AID 687027).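 Also: luciferase reporter driven by Pax8 target thyroperoxidase promoter measured by SteadyGlo luminescence.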 The format is functional, cell-based. (In general: In a reporter assay the amount or activity of a reporter protein is the signal.)
Another assay addresses T1, Caspase-3 (Homo sapiens, UniProt P42574).
T1 sequence (P42574 whole entry): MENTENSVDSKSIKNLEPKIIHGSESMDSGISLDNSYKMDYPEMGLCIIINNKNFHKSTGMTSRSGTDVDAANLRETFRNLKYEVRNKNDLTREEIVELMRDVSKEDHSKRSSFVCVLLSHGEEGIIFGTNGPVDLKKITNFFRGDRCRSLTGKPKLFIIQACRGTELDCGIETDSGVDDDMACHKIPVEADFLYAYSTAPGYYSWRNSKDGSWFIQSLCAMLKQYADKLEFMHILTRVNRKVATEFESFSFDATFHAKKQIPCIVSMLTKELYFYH
The format is functional.

In assay [6] the target is T2, Sentrin-specific protease 7 (Homo sapiens, UniProt Q9BQF6).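 Also: Luminescence-based dose-response confirmation of ultra-high-throughput screening hits, measuring inhibition of SENP7.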
T2 sequence (Q9BQF6 whole entry): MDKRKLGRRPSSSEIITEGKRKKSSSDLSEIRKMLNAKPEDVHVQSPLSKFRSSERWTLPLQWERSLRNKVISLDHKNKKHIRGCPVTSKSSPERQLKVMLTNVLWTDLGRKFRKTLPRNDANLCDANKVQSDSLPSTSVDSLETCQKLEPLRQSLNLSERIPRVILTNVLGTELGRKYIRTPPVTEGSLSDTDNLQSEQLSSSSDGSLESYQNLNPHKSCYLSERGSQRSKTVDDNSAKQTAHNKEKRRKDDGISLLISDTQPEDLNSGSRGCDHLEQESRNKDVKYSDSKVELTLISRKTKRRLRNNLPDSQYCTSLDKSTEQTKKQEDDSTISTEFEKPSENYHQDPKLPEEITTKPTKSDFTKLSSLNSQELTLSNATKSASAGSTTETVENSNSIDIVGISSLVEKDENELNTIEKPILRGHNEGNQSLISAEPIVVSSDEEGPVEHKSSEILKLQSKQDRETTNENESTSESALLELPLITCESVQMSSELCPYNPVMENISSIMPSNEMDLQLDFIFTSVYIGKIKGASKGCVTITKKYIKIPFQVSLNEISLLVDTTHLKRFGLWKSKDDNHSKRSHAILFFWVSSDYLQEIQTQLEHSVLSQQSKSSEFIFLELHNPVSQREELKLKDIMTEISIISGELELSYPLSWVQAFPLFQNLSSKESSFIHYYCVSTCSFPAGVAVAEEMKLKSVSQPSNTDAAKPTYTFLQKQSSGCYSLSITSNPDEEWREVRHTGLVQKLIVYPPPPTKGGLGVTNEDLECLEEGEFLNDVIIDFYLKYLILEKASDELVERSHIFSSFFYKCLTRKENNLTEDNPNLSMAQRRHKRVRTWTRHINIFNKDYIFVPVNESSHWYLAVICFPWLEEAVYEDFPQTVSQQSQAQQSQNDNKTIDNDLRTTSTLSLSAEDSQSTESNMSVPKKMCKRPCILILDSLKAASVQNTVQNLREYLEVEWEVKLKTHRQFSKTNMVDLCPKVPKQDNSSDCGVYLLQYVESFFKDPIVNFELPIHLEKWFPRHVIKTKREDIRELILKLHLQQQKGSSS
In kind it is functional.

Assay [7] addresses T3, Sentrin-specific protease 6 (Homo sapiens, UniProt Q9GZR1).
T3 sequence (Q9GZR1 whole entry): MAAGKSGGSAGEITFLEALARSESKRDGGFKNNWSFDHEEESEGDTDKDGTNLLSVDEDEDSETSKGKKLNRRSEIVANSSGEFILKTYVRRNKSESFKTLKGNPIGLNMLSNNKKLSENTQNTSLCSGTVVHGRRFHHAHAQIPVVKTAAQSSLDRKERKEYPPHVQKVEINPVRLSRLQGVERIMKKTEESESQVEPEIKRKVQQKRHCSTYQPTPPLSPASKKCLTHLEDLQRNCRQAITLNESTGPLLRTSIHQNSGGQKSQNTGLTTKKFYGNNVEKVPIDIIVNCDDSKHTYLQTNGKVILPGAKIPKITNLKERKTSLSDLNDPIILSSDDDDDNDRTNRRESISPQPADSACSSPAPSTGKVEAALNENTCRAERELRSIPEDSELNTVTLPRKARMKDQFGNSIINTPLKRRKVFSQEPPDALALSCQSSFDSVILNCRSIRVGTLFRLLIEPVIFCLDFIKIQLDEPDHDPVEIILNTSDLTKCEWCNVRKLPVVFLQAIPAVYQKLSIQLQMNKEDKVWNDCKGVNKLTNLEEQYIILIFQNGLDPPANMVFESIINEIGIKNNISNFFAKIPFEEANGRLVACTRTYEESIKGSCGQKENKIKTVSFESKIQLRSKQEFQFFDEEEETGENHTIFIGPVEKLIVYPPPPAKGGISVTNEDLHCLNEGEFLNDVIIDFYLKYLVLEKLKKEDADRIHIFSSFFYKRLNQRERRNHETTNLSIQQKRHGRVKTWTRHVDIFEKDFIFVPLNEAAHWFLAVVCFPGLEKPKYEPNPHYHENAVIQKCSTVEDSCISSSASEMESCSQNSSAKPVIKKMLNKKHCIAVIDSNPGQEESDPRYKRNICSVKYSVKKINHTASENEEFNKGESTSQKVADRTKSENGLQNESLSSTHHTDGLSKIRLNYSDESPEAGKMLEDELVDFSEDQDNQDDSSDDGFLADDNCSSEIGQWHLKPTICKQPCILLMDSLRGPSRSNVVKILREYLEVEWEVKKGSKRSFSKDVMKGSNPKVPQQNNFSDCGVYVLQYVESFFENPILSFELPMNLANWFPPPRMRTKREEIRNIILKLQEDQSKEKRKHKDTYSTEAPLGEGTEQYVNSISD
The format is functional.

Assay [8] has as its target T4, Sentrin-specific protease 8 (Homo sapiens, UniProt Q96LD8).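 Also: luminescence read-out of SENP8 inhibition, dose-response confirmation following an ultra-high-throughput screen.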
T4 sequence (Q96LD8 whole entry): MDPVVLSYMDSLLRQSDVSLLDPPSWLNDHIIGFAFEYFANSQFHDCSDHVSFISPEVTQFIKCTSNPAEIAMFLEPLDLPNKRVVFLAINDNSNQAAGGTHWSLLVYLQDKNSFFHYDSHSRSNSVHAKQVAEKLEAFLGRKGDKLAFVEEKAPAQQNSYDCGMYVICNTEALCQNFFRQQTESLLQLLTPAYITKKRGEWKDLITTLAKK
The format is functional.

The next assay has as its target Major prion protein (Homo sapiens, UniProt P04156). In kind it is functional, cell-based.
Assay [9] has as its target Peroxisome proliferator-activated receptor gamma/Nuclear receptor coactivator 2 (Homo sapiens, UniProt P37231). Nature of the assay: TR-FRET dose response biochemical High Throughput Screening assay for agonists of the steroid receptor coactivator 2 (SRC-2) recruitment by the peroxisome proliferator-activated receptor gamma (PPAR gamma): non-selective agonists. [Related pubchem assays: 1297, 1032 ]. In kind it is functional.

For assay [10], the target named is Peroxisome proliferator-activated receptor gamma/Nuclear receptor coactivator 1 (Homo sapiens, UniProt P37231). Put plainly: TR-FRET dose response biochemical High Throughput Screening assay for agonists of the steroid receptor coactivator 1 (SRC-1) recruitment by the peroxisome proliferator-activated receptor gamma (PPAR gamma): non-selective agonists. [Related pubchem assays (depositor defined):AID1300, AID1808, AID504735, AID631]. The format is protein assay. (In general: TR-FRET usually uses a lanthanide donor and a delayed reading to cut background.)

The target in assay [11] is Peroxisome proliferator-activated receptor gamma/Nuclear receptor coactivator 3 (Homo sapiens, UniProt P37231). Nature of the assay: TR-FRET dose response biochemical High Throughput Screening assay for agonists of the steroid receptor coactivator 3 (SRC-3) recruitment by the peroxisome proliferator-activated receptor gamma (PPAR gamma): non-selective agonists. [Related pubchem assays: 1301 (Confirmation screen.), 1048 (Primary screen.)]. The format is functional.

Assay [12] addresses T5, Apoptotic protease-activating factor 1 (Homo sapiens, UniProt O14727).
T5 sequence (O14727 whole entry): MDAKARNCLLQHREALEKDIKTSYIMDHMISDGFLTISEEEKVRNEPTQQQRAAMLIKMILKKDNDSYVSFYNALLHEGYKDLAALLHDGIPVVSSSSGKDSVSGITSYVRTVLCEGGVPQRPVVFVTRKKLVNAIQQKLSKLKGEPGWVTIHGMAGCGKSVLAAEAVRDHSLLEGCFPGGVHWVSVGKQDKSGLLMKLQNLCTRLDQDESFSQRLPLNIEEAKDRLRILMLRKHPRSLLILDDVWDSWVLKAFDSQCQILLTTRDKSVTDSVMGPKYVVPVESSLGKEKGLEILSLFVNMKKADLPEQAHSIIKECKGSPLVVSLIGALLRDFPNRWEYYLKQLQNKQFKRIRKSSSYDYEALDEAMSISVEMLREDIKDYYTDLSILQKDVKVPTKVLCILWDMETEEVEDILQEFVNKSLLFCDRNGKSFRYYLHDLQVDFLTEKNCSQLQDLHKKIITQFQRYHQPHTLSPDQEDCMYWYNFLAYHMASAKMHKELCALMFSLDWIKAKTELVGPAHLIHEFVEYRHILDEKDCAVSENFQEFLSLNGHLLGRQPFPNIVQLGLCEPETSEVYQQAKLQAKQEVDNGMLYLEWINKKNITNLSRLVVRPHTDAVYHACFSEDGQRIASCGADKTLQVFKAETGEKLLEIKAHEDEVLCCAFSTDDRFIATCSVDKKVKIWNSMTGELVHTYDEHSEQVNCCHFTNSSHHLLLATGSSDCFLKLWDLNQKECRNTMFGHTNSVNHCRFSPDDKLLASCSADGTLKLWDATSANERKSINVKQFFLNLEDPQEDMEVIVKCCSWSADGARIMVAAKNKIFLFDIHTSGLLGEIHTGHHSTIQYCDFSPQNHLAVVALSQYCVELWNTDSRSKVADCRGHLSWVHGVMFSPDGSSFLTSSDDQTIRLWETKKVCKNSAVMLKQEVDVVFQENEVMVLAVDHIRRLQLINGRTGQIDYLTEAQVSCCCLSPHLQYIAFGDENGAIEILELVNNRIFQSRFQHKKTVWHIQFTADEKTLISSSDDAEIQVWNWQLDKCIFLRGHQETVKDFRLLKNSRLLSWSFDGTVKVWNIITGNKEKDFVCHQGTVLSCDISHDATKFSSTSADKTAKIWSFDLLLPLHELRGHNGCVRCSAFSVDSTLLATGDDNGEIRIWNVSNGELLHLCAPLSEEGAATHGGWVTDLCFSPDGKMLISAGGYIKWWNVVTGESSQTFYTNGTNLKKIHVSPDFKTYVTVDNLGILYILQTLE
In kind it is functional.

As usually defined, the AC50 is the concentration giving half of the maximal activity seen. Consider `COc1cc(CNCc2ccc(OC)c3ccccc23)cc(OC)c1OC`, for which the AC50 in [1] is 51 µM (active); in [2], > 70 µM (inactive); in [3], 31.8 µM (active); in assay [4] it was 23.8 µM (active).

As for `COc1cccc(N(C(=O)c2ccco2)c2nc(-c3sc(NC(=O)c4ccco4)nc3C)cs2)c1`, the AC50 was 62 µM (active) in assay [5] and 2.1 µM (active) on Paired box protein Pax-8.

By IC50 is commonly meant the concentration that inhibits the measured activity by half. On to `CCOC(=O)c1cc(-c2cc3ccccc3o2)[nH]n1`, for which the IC50 was 15.4 µM (active) at Caspase-3, 5.55 µM (active) in assay [6], 21.6 µM (active) in assay [7] and 34.8 µM (active) in assay [8].

One may read the EC50 as the concentration that produces a half-maximal response. `CCCCNC(=O)CSc1nc(CCC)nc2ccccc12`: the IC50 is 14.7 µM (inactive) at Major prion protein and > 138 µM (inactive) in the assay “cells”. Besides, the 50% effective concentration (EC50) in assay [9] is > 79.4 µM (not active); in [10] it was > 79.4 µM (inactive); in assay [11] it was > 79.4 µM (not active).

Consider `Clc1ccccc1OCc1nn2c(-c3ccncc3)nnc2s1`, for which the half-maximal inhibitory concentration (IC50) in assay [12] was 8.4 µM (active).

As to `COc1ccc(Oc2ccc(/C=C/C(=O)c3cccc(OC)c3)cc2[N+](=O)[O-])cc1`, the concentration at half-maximal activity (AC50) in [5] was 54.3 µM (active); at Paired box protein Pax-8, 14.5 µM (active).

Turning to `O=C(O)c1ccc(NC2=C(N3CCOCC3)C(=O)c3ccccc3C2=O)cc1`, the IC50 in [12] is 35.8 µM (active).

Regarding `CC(C)CCN(C(=O)c1csnn1)C(C(=O)NC1CCCC1)c1ccc(F)cc1` (centres undefined), the AC50 in assay [1] was 5.93 µM (active); in assay [2] it was 5.56 µM (active); in assay [3] it was 7.51 µM (active); in assay [4] it was 4.72 µM (active).

Take `COC(=O)C1=C(C)N(Cc2ccc(C(F)(F)F)cc2)C(NCc2ccccc2)=NC1c1cccc(Cl)c1` (centres undefined): the half-maximal activity concentration (AC50) in assay [5] was 20.9 µM (active); on Paired box protein Pax-8, 12.3 µM (active).

In the case of `CC(C)OCCCNC1=C(Cl)C(=O)c2ccccc2C1=O`, the IC50 at Caspase-3 is 6.38 µM (active); in [6], 19.4 µM (active); in assay [7], 8.48 µM (active); in assay [8] it was 25.7 µM (active).
